Test results reported in patent EP0249301A1, “Pyrido[2,3-b]indoles” (BEECHAM GROUP PLC, priority 1986, dated 1987).

These compounds were tested on Rats (assay: Geller-Seifter procedure (conflict test for anxiolytic properties)). Conditions: Rattus norvegicus, 0.5 h; dose 50 mg/kg po, 30 min before testing; percentage increase in square root of total lever presses in the FR5 'conflict' session; read-out: increase in responding in the 'conflict' session.
Type: in vivo
Description: Potential anxiolytic properties have been evaluated using the Geller-Seifter procedure based on that originally described by Geller and Seifter, (1960) Psychopharmacologia, 1, 482-492.
Rats are trained on a variable interval 30 sec schedule (VI30) to press a lever in order to obtain food reward. The 5 min sessions of the V130 schedule alternate with 2-5 min of a schedule (FR5) in which every 5th lever press is followed by presentation of a food pellet paired with a 0.5 sec mild footshock. The total study lasts approximately 30 mins. Rats typically respond with high rates of lever pressing under the VI30 schedule and low response rats under the Fx5 'conflict' session. Anxiolytic drugs increase the suppressed response rates of rats in 'conflict' session.
Drugs are administered intraperitoneally or orally to groups of 3-8 rats 30 min before testing.
The results are expressed as the percentage increase in square root of the total number of lever presses in the FR5 'conflict' session. Square root transformation is necessary to normalise the data for statistical analysis using parametric methods.

| Structure (SMILES) | change in vivo at 50 mg/kg [%] |
| --- | --- |
| C=CCOC(=O)c1c(C)nc2c(c1N)c1ccccc1n2C [Example 11, 4-Amino-2,9-dimethyl-9H-pyrido[2,3-b]indole-3-carboxylic acid, 2-propenyl ester] | 138 |
| CCCOC(=O)c1c(C)nc2c(c1N)c1ccccc1n2C [Example 24, 4-Amino-2,9-dimethyl-9H-pyrido[2,3,b]indole-3-carboxylic acid, n-propyl ester] | 78 |
| C#CCOC(=O)c1c(C)nc2c(c1N)c1ccccc1n2C [Example 14, 4-Amino-2,9-dimethyl-9H-pyrido[2,3-b]indole-3-carboxy-lie acid, 2-propynyl ester] | 102 |
| CNc1c(C(=O)OC)c(C)nc2c1c1ccccc1n2C [Example 8, 2,9-Dimethyl-4-methylamino-9H-pyrido[2,3-b]indole-3-carboxylic acid, methyl ester] | 112 |
| COC(=O)c1c(C)nc2[nH]c3ccccc3c2c1N [Example 1, 4-Amino-2-methyl-9H-pyrido[2,3-b]indole-3-carboxylic acid, methyl ester] | 143 |
